Drawing on PubChem BioAssay AID342 (DTP/NCI, 2004), this text covers T/C for 14 molecules.

Molecules are shown by their SMILES. Several values for one entry are separate records, joined by “and”; a condition that tells them apart may be missing. Equal values may be shown once. Square brackets hold non-standard residues; d marks the D form. Peptide text beside a SMILES is read from it. Ac5c = NC1(C(=O)O)CCCC1

Broadly, the T/C is the result in the treated group divided by that in the control group, in per cent.

This test relates to Swiss mice, Sarcoma 180 sc, mean tumor weight T/C. As to the kind of experiment: NCI In Vivo Anticancer Drug Screen. Data for tumor model Sarcoma 180 (subcutaneous) in Swiss mice. The note with it: endpoint: mean tumor weight, higher = larger tumour. The gist of the method: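 Transplantable tumors were established in mice, compound was given, then survival or tumor size was recorded. The treated value was divided by the vehicle-control value.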

The mark [1] stands for this setting: dose: 50.0 mg/kg/injection, schedule: Q01DX007 (ip), vehicle: carboxymethylcellulose (CMC).
Setting [2] is: dose: 15.0 mg/kg/injection, schedule: Q01DX007 (ip), vehicle: carboxymethylcellulose (CMC).
The mark [3] stands for this setting: dose: 25.0 mg/kg/injection, schedule: Q01DX007 (ip), vehicle: carboxymethylcellulose (CMC).
Setting [4] is: dose: 30.0 mg/kg/injection, schedule: Q01DX007 (ip), vehicle: carboxymethylcellulose (CMC).

In the case of `CCOC(=O)C(N)Cc1ccc(N(CCCl)CCCl)cc1` (stereo unspecified), the T/C is 41 % of control (dose: 1.4 mg/kg/injection, schedule: Q01DX007 (ip), vehicle: saline); 93 % of control (dose: 2.7 mg/kg/injection, schedule: Q01DX007 (ip), vehicle: saline); 9 % of control (dose: 4.1 mg/kg/injection, schedule: Q01DX007 (ip), vehicle: saline); 90 % of control (dose: 5.0 mg/kg/injection, schedule: Q01DX007 (ip), vehicle: carboxymethylcellulose (CMC)); 32 % of control and 49 % of control (dose: 5.5 mg/kg/injection, schedule: Q01DX007 (ip), vehicle: saline); 83 % of control (dose: 8.0 mg/kg/injection, schedule: Q01DX007 (ip), vehicle: carboxymethylcellulose (CMC)). Further, the T/C runs as follows: (dose: 8.3 mg/kg/injection, schedule: Q01DX007 (ip), vehicle: saline) 15 % of control and 20 % of control; (dose: 12.0 mg/kg/injection, schedule: Q01DX007 (ip), vehicle: carboxymethylcellulose (CMC)) 59 % of control; (dose: 12.5 mg/kg/injection, schedule: Q01DX007 (ip), vehicle: saline) 7 % of control; (dose: 18.0 mg/kg/injection, schedule: Q01DX007 (ip), vehicle: carboxymethylcellulose (CMC)) 29 % of control and 42 % of control; (dose: 27.0 mg/kg/injection, schedule: Q01DX007 (ip), vehicle: carboxymethylcellulose (CMC)) 15 % of control.

On to `O=CC1CO1` (stereo unspecified), for which the T/C under setting [1] was 123 % of control.

For `COC1=C(N)C(=O)c2nc(-c3nc(C(=O)O)c(C)c(-c4ccc(OC)c(OC)c4O)c3N)ccc2C1=O`, the T/C is 66 % of control (dose: 0.02 mg/kg/injection, schedule: Q01DX007 (ip), vehicle: water); 70 % of control (dose: 0.05 mg/kg/injection, schedule: Q01DX007 (ip), vehicle: water); 61 % of control (dose: 0.05 mg/kg/injection, schedule: Q#A X014 (ip), vehicle: alkali diluted with CMC); 37 % of control (dose: 0.09 mg/kg/injection, schedule: Q01DX007 (ip), vehicle: other); 53 % of control and 54 % of control (dose: 0.1 mg/kg/injection, schedule: Q01DX007 (ip), vehicle: water); 52 % of control (dose: 0.1 mg/kg/injection, schedule: Q#A X014 (ip), vehicle: alkali diluted with CMC). Moreover, the T/C runs as follows: (dose: 0.13 mg/kg/injection, schedule: Q01DX007 (ip), vehicle: other) 83 % of control; (dose: 0.2 mg/kg/injection, schedule: Q01DX007 (ip), vehicle: other) 73 % of control; (dose: 0.2 mg/kg/injection, schedule: Q01DX007 (ip), vehicle: water) 48 % of control; (dose: 0.2 mg/kg/injection, schedule: Q#A X014 (ip), vehicle: alkali diluted with CMC) 65 % of control; (dose: 0.25 mg/kg/injection, schedule: Q01DX007 (ip), vehicle: water) 27 % of control; (dose: 0.3 mg/kg/injection, schedule: Q01DX007 (ip), vehicle: other) 54 % of control.

In the case of `O=P1(N(CCCl)CCCl)NCCCO1` (stereo unspecified), the T/C was 50 % of control and 55 % of control (dose: 12.5 mg/kg/injection, schedule: Q01DX007 (ip), vehicle: carboxymethylcellulose (CMC)); 88 % of control under setting [2]; 101 % of control (dose: 23.88 mg/kg/injection, schedule: Q01DX007 (ip), vehicle: carboxymethylcellulose (CMC)); 70 % of control under setting [3]; 97 % of control (dose: 29.85 mg/kg/injection, schedule: Q01DX007 (ip), vehicle: carboxymethylcellulose (CMC)); 25 % of control under setting [4]. The T/C runs as follows: (dose: 39.8 mg/kg/injection, schedule: Q01DX007 (ip), vehicle: carboxymethylcellulose (CMC)) 72 % of control; (dose: 59.7 mg/kg/injection, schedule: Q01DX007 (ip), vehicle: carboxymethylcellulose (CMC)) 34 % of control; (dose: 60.0 mg/kg/injection, schedule: Q01DX007 (ip), vehicle: carboxymethylcellulose (CMC)) 4 % of control; (dose: 80.0 mg/kg/injection, schedule: Q01DX007 (ip), vehicle: carboxymethylcellulose (CMC)) 4 % of control; (dose: 746.25 mg/kg/injection, schedule: Q#A X014 (ip), vehicle: carboxymethylcellulose (CMC)) 65 % of control; (dose: 1492.5 mg/kg/injection, schedule: Q#A X014 (ip), vehicle: carboxymethylcellulose (CMC)) 45 % of control. The T/C was 7 % of control (dose: 2985.0 mg/kg/injection, schedule: Q#A X014 (ip), vehicle: carboxymethylcellulose (CMC)) and 67 % of control (dose: 3731.0 mg/kg/injection, schedule: Q#A X014 (ip), vehicle: carboxymethylcellulose (CMC)).

As to `COc1ccc2c(c1)CC[C@@H]1[C@@H]2CC[C@]2(C)C[C@@](C)(O)C[C@@H]12`, the T/C by setting is: (dose: 0.25 mg/kg/injection, schedule: Q#A X014 (sc), vehicle: steriod suspending solution) 100 % of control; (dose: 1.25 mg/kg/injection, schedule: Q#A X014 (sc), vehicle: steriod suspending solution) 84 % of control; (dose: 2.5 mg/kg/injection, schedule: Q#A X014 (ip), vehicle: methylcellulose (MC)) 94 % of control; (dose: 10.0 mg/kg/injection, schedule: Q#A X014 (ip), vehicle: methylcellulose (MC)) 98 % of control.

As for `O=c1[nH]c(Cl)ncc1F`, the T/C by setting is: (dose: 22.0 mg/kg/injection, schedule: Q01DX007 (ip), vehicle: saline) 36 % of control; (dose: 33.0 mg/kg/injection, schedule: Q01DX007 (ip), vehicle: saline) 46 % of control; (dose: 50.0 mg/kg/injection, schedule: Q01DX007 (ip), vehicle: saline) 29 % of control; (dose: 75.0 mg/kg/injection, schedule: Q01DX007 (ip), vehicle: saline) 5 % of control.

Turning to `COC(=O)C1C2CC3c4[nH]c5cc(OC)ccc5c4CCN3CC2CC(OC(=O)c2cc(OC)c(OC)c(OC)c2)C1OC` (stereo unspecified), the T/C is, setting by setting: (dose: 0.5 mg/kg/injection, schedule: Q01DX007 (ip), vehicle: saline) 155 % of control; (dose: 1.0 mg/kg/injection, schedule: Q01DX007 (ip), vehicle: saline) 85 % of control; (dose: 2.0 mg/kg/injection, schedule: Q01DX007 (ip), vehicle: saline) 62 % of control; (dose: 4.0 mg/kg/injection, schedule: Q01DX007 (ip), vehicle: saline) 83 % of control and 85 % of control; (dose: 8.0 mg/kg/injection, schedule: Q01DX007 (ip), vehicle: saline) 115 % of control; (dose: 16.0 mg/kg/injection, schedule: Q01DX007 (ip), vehicle: saline) 92 % of control. Where the note is “dose: 32.0 mg/kg/injection, schedule: Q01DX007 (ip), vehicle: saline”, the T/C was 90 % of control.

Regarding `CCCCN(C)N=Nc1ccc(C(N)=O)cc1`, the T/C is, setting by setting: under setting [1], 67 % of control; (dose: 75.0 mg/kg/injection, schedule: Q01DX007 (ip), vehicle: carboxymethylcellulose (CMC)) 32 % of control.

Regarding `Fc1ccc(NC(=S)Nc2cc(Cl)cc(Cl)c2)cc1`, the T/C runs as follows: under setting [2], 115 % of control; under setting [4], 117 % of control.

For `Cc1cc(N)c2cc(NC(=O)/C=C\c3ccccc3Cl)ccc2n1`, the T/C was 89 % of control (dose: 11.0 mg/kg/injection, schedule: Q01DX007 (ip), vehicle: carboxymethylcellulose (CMC)); 77 % of control (dose: 17.0 mg/kg/injection, schedule: Q01DX007 (ip), vehicle: carboxymethylcellulose (CMC)); 46 % of control under setting [3].

In the case of `CCOc1ccc2c(c1)CC[C@@H]1[C@@H]2CC[C@@]2(C)[C@H]1CC[C@]2(C)O`, the T/C runs as follows: (dose: 0.5 mg/kg/injection, schedule: Q#A X014 (sc), vehicle: steriod suspending solution) 92 % of control; (dose: 5.0 mg/kg/injection, schedule: Q#A X014 (sc), vehicle: steriod suspending solution) 79 % of control; (dose: 50.0 mg/kg/injection, schedule: Q#A X014 (sc), vehicle: steriod suspending solution) 72 % of control.

With `CCOC(=O)c1c(C#N)c(Cl)nc(C)c1[N+](=O)[O-]`, the T/C runs as follows: (dose: 3.0 mg/kg/injection, schedule: Q#A X014 (ip), vehicle: carboxymethylcellulose (CMC)) 64 % of control; (dose: 6.0 mg/kg/injection, schedule: Q#A X014 (ip), vehicle: carboxymethylcellulose (CMC)) 70 % of control.

Regarding `NC1(C(=O)NC2(C(=O)O)CCCC2)CCCC1` (H-[Ac5c]-[Ac5c]-OH), the T/C by setting is: (dose: 7.5 mg/kg/injection, schedule: Q#A X014 (ip), vehicle: carboxymethylcellulose (CMC)) 66 % of control; (dose: 15.0 mg/kg/injection, schedule: Q#A X014 (ip), vehicle: carboxymethylcellulose (CMC)) 65 % of control; (dose: 30.0 mg/kg/injection, schedule: Q#A X014 (ip), vehicle: carboxymethylcellulose (CMC)) 58 % of control; (dose: 60.0 mg/kg/injection, schedule: Q#A X014 (ip), vehicle: carboxymethylcellulose (CMC)) 32 % of control.

Turning to `CN(CCO)/N=N/c1nc[nH]c1C(N)=O`, the T/C (dose: 125.0 mg/kg/injection, schedule: Q01DX007 (ip), vehicle: carboxymethylcellulose (CMC)) is 73 % of control and the T/C (dose: 250.0 mg/kg/injection, schedule: Q01DX007 (ip), vehicle: carboxymethylcellulose (CMC)) was 78 % of control.
